Reference: US10544154B2, “Opioid receptor antagonist prodrugs” (Nirsum Laboratories, Inc., priority 2017, dated 2020)

What was measured:
[1] = Plasma stability, rat plasma (HPLC-MS); format: in vitro ADME; details: 10 μM, 37° C.
Procedure: Plasma stability determination of the test compounds in rat, dog, cynomolgus monkey and human plasma is performed using HPLC-MS. For rat, incubations are carried out in 96-well polypropylene plates in 5 aliquots of 70 μL each (one for each time point). […] Five time points are analyzed (0, 15, 120, 480 and 1440 min). For dog, monkey and human, test compounds (2 μM, final solvent concentration 1%) were also incubated at 37° C. and analyzed at five time points (0, 10, 30, 60 and 120 min). All incubations are performed in duplicates. The samples are analyzed by HPLC-MS. The percentage of parent compound remaining after incubation in plasma is determined.

[2] = Polymorph screening of solid state drug substances; format: physicochemical; details: for Dry method and appearance: after stirring at 50 °C for 72 hours; for XRPD results (Dried): dried solid

Compound | % remaining at time point in minutes, 0 min [1] [%] | % remaining at time point in minutes, 15 min [1] [%] | % remaining at time point in minutes, 120 min [1] [%] | % remaining at time point in minutes, 480 min [1] [%] | % remaining at time point in minutes, 1440 min [1] [%] | Dry method and appearance ([2]; Acetone) | XRPD results (Dried) ([2]; Acetone) | Dry method and appearance ([2]; EtOAc) | XRPD results (Dried) ([2]; EtOAc) | Dry method and appearance ([2]; Heptane) | XRPD results (Dried) ([2]; Heptane) | Dry method and appearance ([2]; Isopropanol) | XRPD results (Dried) ([2]; Isopropanol) | Dry method and appearance ([2]; MTBE) | XRPD results (Dried) ([2]; MTBE) | Visual observation RT ([2]; Acetone, target conc. 100 mg/ml, RT)
CCCCCCCCCCOC(=O)Oc1ccc2c3c1O[C@H]1C(=O)CC[C@@]4(O)C(C2)N(CC2CC2)CC[C@]314 [Compound 10, (4aS,7aR,12bS)-3-(cyclopropylmethyl)-4a-hydroxy-7-oxo-2,3,4,4a,5,6,7,7a-octahydro-1H-4,12-methanobenzofuro[3,2-e]isoquinolin-9-yl decyl carbonate] | 100 | 0 | 0 | 0 | 0 | Evaporation/White wax | Pattern A | Evaporation/White wax | Pattern A | Centrifugation/White wax | Pattern A | Evaporation/White wax | Pattern A | Evaporation/White wax | Pattern A | 
CCCCCCCCCCCCOC(=O)Oc1ccc2c3c1O[C@H]1C(=O)CC[C@@]4(O)C(C2)N(CC2CC2)CC[C@]314 [Compound 11, (4aS,7aR,12bS)-3-(cyclopropylmethyl)-4a-hydroxy-7-oxo-2,3,4,4a,5,6,7,7a-octahydro-1H-4,12-methanobenzofuro[3,2-e]isoquinolin-9-yl dodecyl carbonate] | 100 | 0.7 | 0.3 | 0.2 | 0 | Evaporation/white powder | Pattern A | Evaporation/white powder | Pattern A | Evaporation/white powder | Pattern B | Evaporation/white powder | Pattern A | Evaporation/white powder | Pattern A | 
C=C1CC[C@@]2(O)C3Cc4ccc(OC(=O)CCCCCCCCCCCCCCCCCCCCC)c5c4[C@@]2(CCN3CC2CC2)[C@H]1O5 [Compound 14, (4aS,7aS,12bS)-3-(cyclopropylmethyl)-4a-hydroxy-7-methylene-2,3,4,4a,5,6,7,7a-octahydro-1H-4,12-methanobenzofuro[3,2-e]isoquinolin-9-yl docosanoate] | 100 | 94 |  |  | 120 | Evaporation/white powder | Pattern A | Evaporation/white powder | Pattern A | Centrifugation/white powder | Pattern B | Evaporation/white powder | Pattern A | Evaporation/white powder | Pattern A | Slurry
Enalapril maleate salt [reference compound] | 100 | 44 | 2.9 | 8.2 | 4.8 |  |  |  |  |  |  |  |  |  |  | 
